In patent US20140155445A1, “Compounds and Methods for Treating Cancer and Diseases of the Central Nervous System” (Osta Biotechnologies Inc., priority 2007, published 2014):
“Also recorded” adds a separate entry of the source.

Key:
[1] = tested on: HCT-116 colorectal carcinoma; assay: Colorectal carcinoma model HCT-116 in SCID mice; assay type: in vivo, human
Source text: (§1) Control groups received the vehicle alone.

[2] = tested on: SKMEL 28-V+ cells (human melanoma); assay: Melanoma model SKMEL-V+ in SCID mice (combination study); assay type: in vivo; settings: QC-56 60 mg/kg/ip; Dacarbazine 55 mg/kg
Description: SKMEL 28-V+ cells (human melanoma). These cells were originally from the ATCC and then engineered to overexpress VEGF. […] The cells were tested to be free of mycoplasma.
as §1

[3] = tested on: SKMEL-V+ cells; assay: Melanoma efficacy study of QC-199, SKMEL-V+ cells s.c. in Scid mice; assay type: in vivo, human; settings: 10 mg/kg i.v. injection, 2 cycles, d1, 3, 5 per cycle
Description: BD PharMingen, San Diego, Calif.). Cryostat sections were used for CD31 staining. […] Sections were rehydrated in PBS and then blocked with 5% normal goat serum for 1 h. The sections were then incubated overnight at 4° C. with CD31 antibody diluted 1:25 in 3% BSA-PBS. […] Sections were counterstained with Harris' hematoxylin and mounted. Slides were analyzed by conventional light microscopy and photographed using color slides (Eastman Kodak, Rochester, N.Y.). Balb/c Scid mice, 6 week-old, were obtained from Charles River Laboratories, St. Zotique, PQ, Canada. The mice weighed 18-22 g. The experiments were approved by the Animal Care Committee, McGill University, Montreal. The animals were housed in individual cages (4 per cage) and were fed standard rodent chow and water ad libitum. […] When the tumors become palpable (size of a rice), mice weights were measured with a digital balance accurate to 0.05 g. […] For the infusion, mice were anesthetized using isoflurane-based system ([…] COMPACT NRB, 3975-0800-000). For the infusion, a mini pump (NE-1800, New Era Pump Systems, Inc.) was used to infuse the compound via the tail vein during a 2 h period. […] At experiment termination, mice were anesthetized with isoflurane and sacrificed by cervical dislocation. Tumors were dissected and tumor weights were measured using a digital balance.

[4] = biological target: T1, human HO-1 (hHO-1) in transfected astroglia (Homo sapiens, UniProt P09601); assay: HO enzyme activity (bilirubin formation) in hHO-1-transfected astrocytes; assay type: cell-based
T1 construct: containing the entire protein-coding region (866 bp) of the human HO-1 gene; expressed in transfected cells; host or cells: primary rat astrocytes, transient transfection with pcDNA3.1/Zeo.CMV.Flag.hHO-1 (Lipofectamine 2000)
T1 sequence (P09601 1-288): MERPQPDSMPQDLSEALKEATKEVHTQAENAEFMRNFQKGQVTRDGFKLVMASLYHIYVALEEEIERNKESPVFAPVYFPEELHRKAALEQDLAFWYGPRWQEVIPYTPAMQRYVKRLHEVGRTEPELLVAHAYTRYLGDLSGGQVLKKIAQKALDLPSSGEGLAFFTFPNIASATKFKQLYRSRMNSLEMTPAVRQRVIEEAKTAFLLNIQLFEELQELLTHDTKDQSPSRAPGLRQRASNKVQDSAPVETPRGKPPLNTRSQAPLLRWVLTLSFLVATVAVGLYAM
Description: (§2) Upon reaching >90% confluence, 1×10^6 cells were transiently transfected with 4.0 μg of plasmid DNA-Lipofectamine 2000 complex using Lipofectamine 2000 method according to manufacturer instructions (Invitrogen). […] 12 μg of plasmid DNA and 16 μl of Lipofectamine 2000 reagent were diluted in 1.5 mL opti-MEM I reduced serum medium and incubated for 5 minutes at room temperature with gentle mixing. The two solutions were combined, incubated at room temperature for 20 minutes to promote formation of DNA-lipid complexes and administered to the cells. 2 mL opti-MEM I reduced serum medium was added to the flasks to ensure coverage of the monolayer by the transfection mixture. Following incubation for 6 hours at 37° C., the transfection mixture was replaced with 10 mL of complete media without antibiotics.
A young adult male rat was gas-anesthetized, laid on ice and systemically perfused with ice-cold 0.9% NaCl to get rid of all blood from liver. The liver was then excised on ice and transferred to a cold room (4° C.) and cut into small pieces in cold 0.9% NaCl (3 mL per gram of tissue) with surgical scissors in and placed in a 50 mL tube. The tissue chunks were homogenized with an electric tissue homogenizer and centrifuged at 150×g for […] at 4° C. Similarly, all of the following steps, including centrifugations, were performed at 4° C. The supernatant was centrifuged at 18,000×g for 10 min and further at 30,000×g for 30 min. A saturated solution of ammonium sulfate was added to the 30,000×g supernatant to attain 40% saturation and placed on ice for 10 min. The mixture was centrifuged at 10,000×g for 10 min and supernatant was recovered and transferred to a fresh tube. Sixty percent of saturation was achieved by adding saturation solution of ammonium sulfate to the supernatant. The mixed solution was centrifuged again at 10,000×g for 10 min and […]. […] The dialysate was centrifuged at 10,000 g for 10 min and pellet was discarded. The protein concentration of the supernatant was measured with Bradford reagent (BioRad laboratories, Hercules, Calif.) and adjusted to 10 mg/mL with 0.01 M KPO4, pH7.4. The supernatant was aliquoted and stored at −20° C. ready for use.
Cytosol extracts were prepared for HO activity measurement by the method of Ryter (Ryter, Kvam, Tyrrell 2000). Astroglial monolayers were washed with ice-cold PBS and scraped in ice-cold PBS-EDTA (1 mM, pH 8.0) containing 50 μg/mL protease inhibitor (AEBSF), centrifuged at 150×g at 4° C. and resuspended in 20 mM Tris-HCl (pH 7.4) and 0.25 M sucrose containing protease inhibitors. Cell suspensions were sonicated on ice 2×15 s at 20 W and centrifuged for 20 min at 4° C. at 15,000×g. Protein concentration of supernatant was measured with Bradford method. […] Reaction mixtures were incubated at 37° C. in the dark for 60 min with hard vortex every 10 min. […] HO activity was calculated as nanomoles bilirubin per milligram protein per min, assuming an extinction coefficient of 40/mM/cm in chloroform (see FIG. 8).
Cells were rinsed twice with cold PBS (pH 7.4) and scraped in iced lysis buffer consisting of 1% Nonidet P-40, 50 mM Tris.HCl (pH 7.4), 30 mM NaCl, 25 mM β-glycerophosphate, 10 mM EDTA, 10 mM EGTA, 1 mM MgCl2, and protease inhibitors (10 mM sodium fluoride, 50 μg/mL AEBBSF, 5 μg/mL leupeptin, 5 μg/mL pepstatin, 5 μg/mL aprotinin). […] Protein contents were determined using the Bradford method. […]

[5] = tested on: hHO-1 transfected primary rat astroglial cultures; assay: Protein carbonyl ELISA in hHO-1-transfected primary rat astroglia (whole-cell and mitochondrial compartments); assay type: cell-based
Description: Cells were grown in Ham's F12 and high glucose DMEM (50:50 v/v) supplemented with 10 mM HEPES, 5% heat-inactivated horse serum, 5% heat-inactivated fetal bovine serum, and penicillin-streptomycin (50 U/mL and 50 μg/mL, respectively).
as §2
The cells were sonicated (Sonics & Materials, Danbury, Conn.) at a power level of 50 for 3×20 s in a cooled water bath. […] Whole-cell and mitochondrial preparations were assayed for protein carbonyls as described below.
Protein carbonyls were reacted with 2,4-dinitrophenylhydrazine (DNP) and the hydrazone adducts were detected with anti-DNP antisera. Quantification was achieved by comparison with oxidized BSA standards. Oxidized (carbonylated) BSA was prepared by reacting natural BSA (at 50 mg/mL in PBS) with hypochlorous acid (5 mM) for 1 h at 37° C., followed by overnight dialysis against PBS at 4° C. […] The pellet was resuspended in 2 mL of same buffer, sonicated on ice 2×15 s at 20 W and centrifuged for 20 min at 4° C. at 1,303×g. Protein concentration of supernatant was measured with the RC DC protein assay based on the Lowry protocol (Bio-Rad Laboratories, Hercules, Calif.). All samples were adjusted to 4.0 mg protein/mL. […] Five microliters aliquots of each reaction mixture were mixed with 1 mL PBS and 200 μL replicates were added per well to 96-well immunoplates and incubated overnight at 4° C. After washing with PBS, nonspecific binding sites were blocked with 0.1% Tween 20 in PBS. […] A 6-point standard curve of reduced and oxidized BSA was generated for each plate analyzed. Specific absorbance for each sample was calculated by subtracting basal absorbance of the DNP reagent from the total absorbance.

[6] = tested on: OVCAR-3 (human ovarian carcinoma); assay: Ovarian carcinoma model OVCAR-3 in SCID mice; assay type: in vivo; settings: QC-56 60 mg/kg/ip; CDDP 3 mg/kg
Source text: • Species and strain: […] OVCAR-3 (human ovarian carcinoma). […] Control groups received the vehicle alone.

[7] = tested on: B16-BL6 cells (mouse melanoma); assay: B16-BL6 melanoma lung metastasis model; assay type: in vivo; settings: QC-56 60 mg/kg i.p.; vehicle group 101 nodules
Description: • Species and strain: […] B16-BL6 cells (mouse melanoma). B16-BL6 metastatic variant was derived from B16-F10. This cell variant was obtained from Dr. Linda D. Williams, Dept. of Cancer Biology, MD Anderson Cancer Center, Texas, USA. […] Cells were maintained at 37° C. in a humidified atmosphere (5% CO2, 95% air). […] Control groups received the vehicle alone.

In the case of O=c1[nH]cc(F)c(=O)[nH]1 [5-FU, reference compound], the mouse mortality ([1]; 60 mg/kg, HCT-116 model (FIG. 25)) is reported as “induced mortality” and the “reduction of tumor volume at the time of sacrifice compared to control” value ([1]; QC-56 60 mg/kg/ip, 5-FU 60 mg/kg/ip reduced to 40 mg/kg) is reported as “similar”.
With CN(C)/N=N/c1[nH]cnc1C(N)=O [Dacarbazine, reference compound] the “inhibition of tumor growth compared to vehicle alone” value [2] was “approximately 24%”, the “tumor size on the day of sacrifice” value [2] was 1.30±0.23 cm^3 and the “reduction of tumor volume vs vehicle” value [3] was 21%.
For Cl.FC[C@@H]1CO[C@@](CCc2ccc(Cl)cc2)(Cn2ccnc2)O1 [QC-47, (2R,4S)-2-[2-(4-Chlorophenyl)ethyl]-2-[(1H-imidazol-1-yl)methyl]-4-(fluoromethyl)-1,3-dioxolane hydrochloride], the “HO activity in HO-1-transfected astroglia” value ([4]; 6.5 μM, 18 h, hHO-1-transfected cells, hydrochloride) was “suppressed to levels akin to those of non-transfected and sham-transfected controls; also recorded: significantly attenuated; also recorded: significantly decreased”, the “expression level of flag-tagged HO-1 protein” value ([4]; 6.5 μM, transiently transfected cells) was “without affecting the expression level of flag-tagged HO-1 protein” and the IC50 ([4]; concentration of QC-47 used on HO-1-transfected astroglia, stated as IC50) was 6.5 µM. The “oxidative protein damage (protein carbonyls) accruing from hHO-1 transfection” value ([5]; 6.5 μM) was “significantly attenuated” and the “dose dependence of attenuation of oxidative protein damage” value ([5]; transiently transfected rat astroglia, hydrochloride) was “significant dose dependant attenuations; also recorded: in a dose dependent manner significantly decreased”.
N.N.[Cl][Pt][Cl] [cisplatin, reference compound] was tested, and the “tumor size on the day of sacrifice” value [6] was 0.63±0.06 cm^3 and the “macroscopic nodules in the lungs (average)” value [7] was 60.
